ChEMBL document CHEMBL1914411, “Synthesis of lipophilic dimeric C-7/C-7-linked ciprofloxacin and C-6/C-6-linked levofloxacin derivatives. Versatile in vitro biological evaluations of monomeric and dimeric fluoroquinolone derivatives as potential antitumor, antibacterial or antimycobacterial agents” (Eur J Med Chem, 2011)
≈ marks a conversion by molar mass, not a printed value. Calls of active or inactive are those of the source. No rule for the calls is given here.

Columns and labels:
Pseudomonas aeruginosa = experiment: Antimicrobial activity against Pseudomonas aeruginosa CIP 82.118 after 18 to 24 hrs by broth microdilution method; type: functional
Enterococcus hirae = experiment: Antimicrobial activity against Enterococcus hirae CIP 5855 after 18 to 24 hrs by broth microdilution method; type: functional
Staphylococcus aureus [1] = experiment: Antimicrobial activity against Staphylococcus aureus CIP 4.83 after 18 to 24 hrs by broth microdilution method; type: functional
Escherichia coli = experiment: Antimicrobial activity against Escherichia coli CIP 53126 after 18 to 24 hrs by broth microdilution method; type: functional
[2] = tested on: Mycobacterium tuberculosis; experiment: Antimycobacterial activity against Mycobacterium tuberculosis H37Rv assessed as growth inhibition at 0.1 uM after 6 days by MTT colorimetric microassay; type: functional, organism-based
Staphylococcus aureus [3] = experiment: Antimicrobial activity against methicillin-resistant Staphylococcus aureus ATCC 33592 after 18 to 24 hrs by broth microdilution method; type: functional
Staphylococcus aureus [4] = experiment: Antimicrobial activity against methicillin-resistant Staphylococcus aureus ATCC 33591 after 18 to 24 hrs by broth microdilution method; type: functional
Staphylococcus aureus [5] = experiment: Antimicrobial activity against multidrug-resistant Staphylococcus aureus isolate 1 after 18 to 24 hrs by broth microdilution method; type: functional
Staphylococcus aureus [6] = experiment: Antimicrobial activity against multidrug-resistant Staphylococcus aureus isolate 2 after 18 to 24 hrs by broth microdilution method; type: functional

CCCCCCNC(=O)c1cn2c3c(c(N4CCN(C)CC4)c(F)cc3c1=O)OC[C@@H]2C
MBC (Pseudomonas aeruginosa): 250 µM (≈ 111 µg/mL) | MIC (Pseudomonas aeruginosa): 62.5 µM (≈ 27.8 µg/mL) | MBC (Enterococcus hirae): 250 µM (≈ 111 µg/mL) | MIC (Enterococcus hirae): 125 µM (≈ 55.6 µg/mL) | MBC (Staphylococcus aureus [1]): 250 µM (≈ 111 µg/mL) | MIC (Staphylococcus aureus [1]): 250 µM (≈ 111 µg/mL) | MBC (Escherichia coli): 500 µM (≈ 222 µg/mL) | MIC (Escherichia coli): 125 µM (≈ 55.6 µg/mL) | growth inhibition (GI) [2]: inactive

CCCCCCCCCCCCCCCC(=O)OCC(=O)N1CCN(c2cc3c(cc2F)c(=O)c(C(=O)O)cn3C2CC2)CC1
MBC (Pseudomonas aeruginosa): 250 µM (≈ 157 µg/mL) | MIC (Pseudomonas aeruginosa): 125 µM (≈ 78.5 µg/mL) | MBC (Enterococcus hirae): 500 µM (≈ 314 µg/mL) | MIC (Enterococcus hirae): 125 µM (≈ 78.5 µg/mL) | MBC (Staphylococcus aureus [1]): 500 µM (≈ 314 µg/mL) | MIC (Staphylococcus aureus [1]): 62.5 µM (≈ 39.2 µg/mL) | MBC (Escherichia coli): 500 µM (≈ 314 µg/mL) | MIC (Escherichia coli): 125 µM (≈ 78.5 µg/mL) | growth inhibition (GI) [2]: inactive

O=C(CCCCCCCCCCCCCCC(=O)OCN1CCN(c2cc3c(cc2F)c(=O)c(C(=O)O)cn3C2CC2)CC1)OCN1CCN(c2cc3c(cc2F)c(=O)c(C(=O)O)cn3C2CC2)CC1
MBC (Pseudomonas aeruginosa): 250 µM (≈ 243 µg/mL) | MIC (Pseudomonas aeruginosa): 62.5 µM (≈ 60.8 µg/mL) | MBC (Staphylococcus aureus [3]): 1.9 µM (≈ 1.85 µg/mL) | MIC (Staphylococcus aureus [3]): 0.97 µM (≈ 0.944 µg/mL) | MBC (Enterococcus hirae): 62.5 µM (≈ 60.8 µg/mL) | MIC (Enterococcus hirae): 31.2 µM (≈ 30.4 µg/mL) | MBC (Staphylococcus aureus [1]): ≤ 0.97 µM | MIC (Staphylococcus aureus [1]): ≤ 0.97 µM | MBC (Escherichia coli): 15.6 µM (≈ 15.2 µg/mL) | MIC (Escherichia coli): 7.8 µM (≈ 7.59 µg/mL) | growth inhibition (GI) [2]: inactive | MBC (Staphylococcus aureus [4]): 15.6 µM (≈ 15.2 µg/mL) | MIC (Staphylococcus aureus [4]): 7.8 µM (≈ 7.59 µg/mL) | MBC (Staphylococcus aureus [5]): 500 µM (≈ 487 µg/mL) | MIC (Staphylococcus aureus [5]): 125 µM (≈ 122 µg/mL) | MBC (Staphylococcus aureus [6]): 500 µM (≈ 487 µg/mL) | MIC (Staphylococcus aureus [6]): 125 µM (≈ 122 µg/mL)

CCCCCCCCCCOC(=O)N1CCN(c2cc3c(cc2F)c(=O)c(C(=O)O)cn3C2CC2)CC1
MBC (Pseudomonas aeruginosa): 250 µM (≈ 129 µg/mL) | MIC (Pseudomonas aeruginosa): 125 µM (≈ 64.5 µg/mL) | MBC (Enterococcus hirae): 500 µM (≈ 258 µg/mL) | MIC (Enterococcus hirae): 62.5 µM (≈ 32.2 µg/mL) | MBC (Staphylococcus aureus [1]): 62.5 µM (≈ 32.2 µg/mL) | MIC (Staphylococcus aureus [1]): 62.5 µM (≈ 32.2 µg/mL) | MBC (Escherichia coli): 500 µM (≈ 258 µg/mL) | MIC (Escherichia coli): 125 µM (≈ 64.5 µg/mL) | growth inhibition (GI) [2]: inactive

CCOC(=O)N1CCN(c2cc3c(cc2F)c(=O)c(C(=O)O)cn3C2CC2)CC1
MBC (Pseudomonas aeruginosa): 250 µM (≈ 101 µg/mL) | MIC (Pseudomonas aeruginosa): 62.5 µM (≈ 25.2 µg/mL) | MBC (Staphylococcus aureus [3]): 1.9 µM (≈ 0.766 µg/mL) | MIC (Staphylococcus aureus [3]): 0.48 µM (≈ 0.194 µg/mL) | MBC (Enterococcus hirae): 3.9 µM (≈ 1.57 µg/mL) | MIC (Enterococcus hirae): 3.9 µM (≈ 1.57 µg/mL) | MBC (Staphylococcus aureus [1]): ≤ 0.97 µM | MIC (Staphylococcus aureus [1]): ≤ 0.97 µM | MBC (Escherichia coli): 31.2 µM (≈ 12.6 µg/mL) | MIC (Escherichia coli): 7.8 µM (≈ 3.15 µg/mL) | growth inhibition (GI) [2]: inactive | MBC (Staphylococcus aureus [4]): 1.9 µM (≈ 0.766 µg/mL) | MIC (Staphylococcus aureus [4]): 0.97 µM (≈ 0.391 µg/mL) | MBC (Staphylococcus aureus [5]): 500 µM (≈ 202 µg/mL) | MIC (Staphylococcus aureus [5]): 125 µM (≈ 50.4 µg/mL) | MBC (Staphylococcus aureus [6]): 125 µM (≈ 50.4 µg/mL) | MIC (Staphylococcus aureus [6]): 62.5 µM (≈ 25.2 µg/mL)

CCCCCCCCCOC(=O)N1CCN(c2cc3c(cc2F)c(=O)c(C(=O)O)cn3C2CC2)CC1
MBC (Pseudomonas aeruginosa): 250 µM (≈ 125 µg/mL) | MIC (Pseudomonas aeruginosa): 125 µM (≈ 62.7 µg/mL) | MBC (Enterococcus hirae): 250 µM (≈ 125 µg/mL) | MIC (Enterococcus hirae): 62.5 µM (≈ 31.3 µg/mL) | MBC (Staphylococcus aureus [1]): 125 µM (≈ 62.7 µg/mL) | MIC (Staphylococcus aureus [1]): 62.5 µM (≈ 31.3 µg/mL) | MBC (Escherichia coli): 500 µM (≈ 251 µg/mL) | MIC (Escherichia coli): 125 µM (≈ 62.7 µg/mL) | growth inhibition (GI) [2]: inactive

O=C(CCCCCCCCCCC(=O)OCN1CCN(c2cc3c(cc2F)c(=O)c(C(=O)O)cn3C2CC2)CC1)OCN1CCN(c2cc3c(cc2F)c(=O)c(C(=O)O)cn3C2CC2)CC1
MBC (Pseudomonas aeruginosa): 125 µM (≈ 115 µg/mL) | MIC (Pseudomonas aeruginosa): 62.5 µM (≈ 57.3 µg/mL) | MBC (Staphylococcus aureus [3]): 0.48 µM (≈ 0.44 µg/mL) | MIC (Staphylococcus aureus [3]): 0.24 µM (≈ 0.22 µg/mL) | MBC (Enterococcus hirae): 31.2 µM (≈ 28.6 µg/mL) | MIC (Enterococcus hirae): 31.2 µM (≈ 28.6 µg/mL) | MBC (Staphylococcus aureus [1]): ≤ 0.97 µM | MIC (Staphylococcus aureus [1]): ≤ 0.97 µM | MBC (Escherichia coli): 62.5 µM (≈ 57.3 µg/mL) | MIC (Escherichia coli): 31.2 µM (≈ 28.6 µg/mL) | growth inhibition (GI) [2]: inactive | MBC (Staphylococcus aureus [4]): 3.9 µM (≈ 3.58 µg/mL) | MIC (Staphylococcus aureus [4]): 1.9 µM (≈ 1.74 µg/mL) | MBC (Staphylococcus aureus [5]): 250 µM (≈ 229 µg/mL) | MIC (Staphylococcus aureus [5]): 125 µM (≈ 115 µg/mL) | MBC (Staphylococcus aureus [6]): 250 µM (≈ 229 µg/mL) | MIC (Staphylococcus aureus [6]): 62.5 µM (≈ 57.3 µg/mL)

CCCCCCCCCCCCCC(=O)N1CCN(c2cc3c(cc2F)c(=O)c(C(=O)O)cn3C2CC2)CC1
MBC (Pseudomonas aeruginosa): 250 µM (≈ 135 µg/mL) | MIC (Pseudomonas aeruginosa): 125 µM (≈ 67.7 µg/mL) | MBC (Enterococcus hirae): 250 µM (≈ 135 µg/mL) | MIC (Enterococcus hirae): 62.5 µM (≈ 33.9 µg/mL) | MBC (Staphylococcus aureus [1]): 125 µM (≈ 67.7 µg/mL) | MIC (Staphylococcus aureus [1]): 125 µM (≈ 67.7 µg/mL) | MBC (Escherichia coli): 500 µM (≈ 271 µg/mL) | MIC (Escherichia coli): 125 µM (≈ 67.7 µg/mL) | growth inhibition (GI) [2]: inactive

O=C(O)c1cn(C2CC2)c2cc(N3CCN(C(=O)Cc4ccccc4)CC3)c(F)cc2c1=O
MBC (Pseudomonas aeruginosa): 250 µM (≈ 112 µg/mL) | MIC (Pseudomonas aeruginosa): 62.5 µM (≈ 28.1 µg/mL) | MBC (Staphylococcus aureus [3]): 0.24 µM (≈ 0.108 µg/mL) | MIC (Staphylococcus aureus [3]): 0.12 µM (≈ 0.0539 µg/mL) | MBC (Enterococcus hirae): 7.8 µM (≈ 3.51 µg/mL) | MIC (Enterococcus hirae): 3.9 µM (≈ 1.75 µg/mL) | MBC (Staphylococcus aureus [1]): ≤ 0.24 µM | MIC (Staphylococcus aureus [1]): ≤ 0.12 µM | MBC (Escherichia coli): 7.8 µM (≈ 3.51 µg/mL) | MIC (Escherichia coli): 3.9 µM (≈ 1.75 µg/mL) | growth inhibition (GI) [2]: inactive | MBC (Staphylococcus aureus [4]): 0.24 µM (≈ 0.108 µg/mL) | MIC (Staphylococcus aureus [4]): 0.12 µM (≈ 0.0539 µg/mL) | MBC (Staphylococcus aureus [5]): 62.5 µM (≈ 28.1 µg/mL) | MIC (Staphylococcus aureus [5]): 31.2 µM (≈ 14 µg/mL) | MBC (Staphylococcus aureus [6]): 15.6 µM (≈ 7.01 µg/mL) | MIC (Staphylococcus aureus [6]): 15.6 µM (≈ 7.01 µg/mL)

CC(=O)OCC(=O)N1CCN(c2cc3c(cc2F)c(=O)c(C(=O)O)cn3C2CC2)CC1
MBC (Pseudomonas aeruginosa): 250 µM (≈ 108 µg/mL) | MIC (Pseudomonas aeruginosa): 62.5 µM (≈ 27 µg/mL) | MBC (Staphylococcus aureus [3]): 1.9 µM (≈ 0.82 µg/mL) | MIC (Staphylococcus aureus [3]): 0.97 µM (≈ 0.418 µg/mL) | MBC (Enterococcus hirae): 15.6 µM (≈ 6.73 µg/mL) | MIC (Enterococcus hirae): 15.6 µM (≈ 6.73 µg/mL) | MBC (Staphylococcus aureus [1]): ≤ 0.97 µM | MIC (Staphylococcus aureus [1]): ≤ 0.97 µM | MBC (Escherichia coli): 15.6 µM (≈ 6.73 µg/mL) | MIC (Escherichia coli): 7.8 µM (≈ 3.37 µg/mL) | growth inhibition (GI) [2]: inactive | MBC (Staphylococcus aureus [4]): 3.9 µM (≈ 1.68 µg/mL) | MIC (Staphylococcus aureus [4]): 3.9 µM (≈ 1.68 µg/mL) | MBC (Staphylococcus aureus [5]): 500 µM (≈ 216 µg/mL) | MIC (Staphylococcus aureus [5]): 125 µM (≈ 53.9 µg/mL) | MBC (Staphylococcus aureus [6]): 125 µM (≈ 53.9 µg/mL) | MIC (Staphylococcus aureus [6]): 125 µM (≈ 53.9 µg/mL)
